Source: paper PMC5855801, “Benzothiophenone Derivatives Targeting Mutant Forms of Estrogen Receptor-α in Hormone-Resistant Breast Cancers” (International Journal of Molecular Sciences, 2018)

Columns and labels:
[1] = molecular target: ERβ LBD (Homo sapiens, UniProt Q92731); assay: TR-FRET coactivator peptide displacement assay with ERβ-LBD; format: biochemical; conditions: purified ERβ LBD
Source text: Given that tamoxifen acts as a pure antagonist of ERβ [34], the effect of VPC-16606 on ERβ and its corresponding implications in breast cancer will also need to be evaluated. Moreover, the role of ERβ in breast cancer biology is not yet clear, with some evidence pointing towards ERβ exerting proliferating effects in the absence of ERα [36].
Supplementary Materials: Benzothiophenone Derivatives Targeting Mutant Forms of Estrogen Receptor-α in Hormone-Resistant Breast Cancers
Figure S1. Effect of VPC-16606 on viability of PC3 cells as measured in the Presto Blue assay. […]
Figure S2. TR-FRET Assay showing displacement of Fluorescein labelled PGC1 α peptide by VPC-16606 upon incubation with ER β-LBD. OHT was used at 1µM. Error bars represent standard deviation for two independent experiments performed in triplicates. […]

[2] = molecular target: T1, androgen receptor (AR) (Homo sapiens, UniProt P10275); assay: Luciferase reporter selectivity assay in PC3 cells, AR; format: cell-based; conditions: 24 h
T1 construct: expressed in transfected cells; host or cells: PC3
T1 sequence (P10275 1-920): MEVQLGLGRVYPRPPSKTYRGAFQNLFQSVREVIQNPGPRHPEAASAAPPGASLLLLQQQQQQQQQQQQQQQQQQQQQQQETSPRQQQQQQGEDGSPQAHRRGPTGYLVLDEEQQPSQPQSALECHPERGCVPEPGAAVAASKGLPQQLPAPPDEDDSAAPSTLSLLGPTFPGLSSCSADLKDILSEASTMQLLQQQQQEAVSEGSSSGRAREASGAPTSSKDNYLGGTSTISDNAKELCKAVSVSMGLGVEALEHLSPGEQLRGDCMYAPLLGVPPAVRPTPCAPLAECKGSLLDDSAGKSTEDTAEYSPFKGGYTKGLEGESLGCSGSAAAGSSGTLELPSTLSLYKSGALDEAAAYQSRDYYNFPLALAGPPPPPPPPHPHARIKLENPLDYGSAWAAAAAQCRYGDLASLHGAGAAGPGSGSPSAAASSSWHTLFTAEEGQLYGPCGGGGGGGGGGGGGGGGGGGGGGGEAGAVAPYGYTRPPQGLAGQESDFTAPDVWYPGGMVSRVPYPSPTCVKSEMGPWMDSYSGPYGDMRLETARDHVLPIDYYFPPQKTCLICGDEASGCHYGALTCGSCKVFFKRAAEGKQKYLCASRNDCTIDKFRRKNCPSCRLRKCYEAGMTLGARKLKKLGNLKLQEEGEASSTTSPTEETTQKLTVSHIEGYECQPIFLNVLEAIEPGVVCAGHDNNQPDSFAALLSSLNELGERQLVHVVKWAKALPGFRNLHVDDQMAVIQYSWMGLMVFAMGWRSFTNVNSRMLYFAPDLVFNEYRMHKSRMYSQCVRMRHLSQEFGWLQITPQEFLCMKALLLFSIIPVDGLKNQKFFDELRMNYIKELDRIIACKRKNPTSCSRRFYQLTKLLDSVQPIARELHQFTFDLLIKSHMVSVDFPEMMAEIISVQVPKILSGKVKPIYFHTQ
Protocol: Figure 4 Further activity profile of VPC-16606. (A,B) Chromatin immunoprecipitation (ChIP) analysis of ERα binding to the pS2 enhancer, or the GAPDH promoter, in MCF7 cells. Where indicated, ERα was stimulated with 1 nM E2 or dimethyl sulfoxide (DMSO) alone, and the compound was administered at a 6 μM concentration. Sheared chromatin-protein complexes were precipitated with the ERα antibody, reverse cross-linked and analyzed by quantitative PCR. The results are normalized as fold enrichment over precipitation with a rabbit isotype control IgG antibody for each condition tested. Error bars indicate standard error of the mean (SEM) for 3 independent experiments performed in triplicates. Fold enrichment from the compound tested condition (ERα antibody) was statistically compared against DMSO + E2 with a two-tailed t-test (unpaired) *** indicates p-value <0.001. (C) Specificity of VPC-16606 was evaluated in the luciferase reporter assay. PC3 cells were transfected with plasmids expressing androgen receptor (AR), progesterone receptor (PR) or glucocorticoid receptor (GR) along with their responsive luciferase reporter constructs bearing androgen response element (ARE), progesterone response element (PRE) or glucocorticoid response element (GRE), respectively. […] Y-axis represents relative luminescence (RLU) after normalizing to constitutive renilla reporter. […]

Chain of ERβ LBD (Q92731 264-498 limits assumed, species assumed): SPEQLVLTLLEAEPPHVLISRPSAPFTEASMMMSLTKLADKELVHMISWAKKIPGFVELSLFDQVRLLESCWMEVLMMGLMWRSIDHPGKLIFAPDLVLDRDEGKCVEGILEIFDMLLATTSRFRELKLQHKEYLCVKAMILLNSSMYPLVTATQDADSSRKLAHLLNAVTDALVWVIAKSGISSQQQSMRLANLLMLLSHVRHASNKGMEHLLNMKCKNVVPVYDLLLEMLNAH

CC(=O)N(/N=C1\Sc2c(C)cccc2C1=O)c1ccccc1Cl [VPC-16606]
Displacement of fluorescein labelled PGC1α peptide from ERβ LBD (TR-FRET) [1]: resulted in peptide displacement | Effect on AR activity (luciferase) ([2]; 50 µM): some effect | Effect on AR activity (luciferase) ([2]; doses up to 25 µM): does not affect the activity
